# From PubChem BioAssay (NCI)
# “And” between values parts separate entries of the source, which are not always exact repeats. Identical values can stand only once.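 Cells were grown in 96-well plates and exposed to each compound for 48 hours at five concentrations; endpoints were interpolated linearly between bracketing concentrations, or set to the highest concentration if not reached. GI50 marks 50% less growth. TGI: concentration producing complete growth inhibition.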
# Key:
# Experiment in all cases: NCI-60 cell line screen, 48 h
# [1] = tested on: SNB-19 CNS
# [2] = tested on: UACC-257 melanoma
# [3] = tested on: SK-MEL-5 melanoma
# [4] = tested on: SR leukemia
# [5] = tested on: ACHN renal
# [6] = tested on: DLD-1 colon
# [7] = tested on: SK-MEL-28 melanoma
# [8] = tested on: OVCAR-5 ovarian
# [9] = tested on: RXF 393 renal
# [10] = tested on: HT29 colon
# [11] = tested on: U251 CNS
# [12] = tested on: HOP-92 NSCLC
# [13] = tested on: K-562 leukemia
# [14] = tested on: SN12C renal
# [15] = tested on: UACC-62 melanoma
# [16] = tested on: SF-539 CNS
# [17] = tested on: RXF-631 renal
# [18] = tested on: NCI-H460 lung
# [19] = tested on: HOP-18 NSCLC
# [20] = tested on: SK-OV-3 ovarian
# [21] = tested on: SF-295 CNS
# [22] = tested on: SF-268 CNS
# [23] = tested on: NCI-H522 lung
# [24] = tested on: XF 498 CNS
# [25] = tested on: HL-60(TB) leukemia
# [26] = tested on: DMS 273 small cell lung
# [27] = tested on: RPMI-8226 leukemia
# [28] = tested on: HCT-116 colon
# [29] = tested on: HCC-2998 colon
# [30] = tested on: A549 NSCLC
# [31] = tested on: OVCAR-3 ovarian
# [32] = tested on: NCI-H23 lung
# [33] = tested on: SNB-78 CNS
# [34] = tested on: IGROV1 ovarian
# [35] = tested on: TK-10 renal
# [36] = tested on: OVCAR-8 ovarian
# [37] = tested on: OVCAR-4 ovarian
# [38] = tested on: A498 renal
# [39] = tested on: SNB-75 CNS
# [40] = tested on: COLO 205 colon
# [41] = tested on: MOLT-4 leukemia
# [42] = tested on: CCRF-CEM leukemia
# [43] = tested on: KM12 colon
# [44] = tested on: SW-620 colon
# [45] = tested on: LOX IMVI melanoma
# [46] = tested on: MALME-3M melanoma
# [47] = tested on: UO-31 renal
# [48] = tested on: HOP-62 NSCLC
# [49] = tested on: NCI-H226 lung
# [50] = tested on: SK-MEL-2 melanoma
# [51] = tested on: LXFL 529 NSCLC
# [52] = tested on: KM20L2 colon
# [53] = tested on: M14 melanoma
# [54] = tested on: DMS 114 small cell lung
# [55] = tested on: HCT-15 colon
# [56] = tested on: M19-MEL melanoma
# [57] = tested on: CAKI-1 renal
# [58] = tested on: EKVX NSCLC
# [59] = tested on: 786-0 renal
smiles,measurement,setting,value
Cc1ccc(NC(=O)OCC(COc2ccc(Cl)cc2)OC(=O)Nc2ccc(C)cc2)cc1 (stereo not given),TGI,[1],57.3 µM
same,TGI,[2],> 100 µM
same,TGI,[3],> 100 µM
same,TGI,[4],> 100 µM
same,TGI,[5],> 100 µM
same,TGI,[6],> 100 µM
same,TGI,[7],> 100 µM
same,TGI,[8],> 100 µM
same,TGI,[9],43.1 µM
same,TGI,[10],71.7 µM
same,TGI,[11],> 100 µM
same,TGI,[12],31 µM
same,TGI,[13],60.4 µM
same,TGI,[14],> 100 µM
same,TGI,[15],> 100 µM
same,TGI,[16],52.3 µM
same,TGI,[17],24.9 µM
same,TGI,[18],> 100 µM
same,TGI,[19],> 100 µM
same,TGI,[20],> 100 µM
same,TGI,[21],80.6 µM
same,TGI,[22],> 100 µM
same,TGI,[23],> 100 µM
same,TGI,[24],86.7 µM
same,TGI,[25],27.9 µM
same,TGI,[26],66.4 µM
same,TGI,[27],> 100 µM
same,TGI,[28],> 100 µM
same,TGI,[29],> 100 µM
same,TGI,[30],> 100 µM
same,TGI,[31],61.8 µM
same,TGI,[32],> 100 µM
same,TGI,[33],82.5 µM
same,TGI,[34],> 100 µM
same,TGI,[35],96.9 µM
same,TGI,[36],> 100 µM
same,TGI,[37],73.6 µM
same,TGI,[38],60.4 µM
same,TGI,[39],36.9 µM
same,TGI,[40],> 100 µM
same,TGI,[41],> 100 µM
same,TGI,[42],> 100 µM
same,TGI,[43],> 100 µM
same,TGI,[44],> 100 µM
same,TGI,[45],96.9 µM
same,TGI,[46],54.2 µM
same,TGI,[47],> 100 µM
same,TGI,[48],> 100 µM
same,TGI,[49],67.9 µM
same,TGI,[50],58.4 µM
same,TGI,[51],> 100 µM
same,TGI,[52],> 100 µM
same,TGI,[53],63.8 µM
same,TGI,[54],98.8 µM
same,TGI,[55],> 100 µM
same,TGI,[56],> 100 µM
same,TGI,[57],57 µM
same,TGI,[58],> 100 µM
CC(=O)OC1COC(N2CCc3ccccc32)C(OC(C)=O)C1OC(C)=O (stereo not given),TGI,[1],> 100 µM
same,TGI,[2],> 100 µM
same,TGI,[3],> 100 µM
same,TGI,[4],> 100 µM
same,TGI,[5],> 100 µM
same,TGI,[6],> 100 µM
same,TGI,[7],> 100 µM
same,TGI,[8],> 100 µM
same,TGI,[9],> 100 µM
same,TGI,[10],> 100 µM
same,TGI,[11],> 100 µM
same,GI50,[12],> 100 µM
same,TGI,[12],> 100 µM
same,TGI,[13],> 100 µM
same,TGI,[14],> 100 µM
same,TGI,[15],> 100 µM
same,TGI,[16],> 100 µM
same,TGI,[17],> 100 µM
same,TGI,[18],> 100 µM
same,TGI,[19],> 100 µM
same,TGI,[20],> 100 µM
same,TGI,[21],> 100 µM
same,TGI,[22],> 100 µM
same,TGI,[23],> 100 µM
same,TGI,[24],> 100 µM
same,GI50,[25],89.3 µM and 28.2 µM
same,TGI,[25],> 100 µM
same,TGI,[26],> 100 µM
same,TGI,[27],> 100 µM
same,TGI,[28],> 100 µM
same,TGI,[29],> 100 µM
same,TGI,[30],> 100 µM
same,TGI,[31],> 100 µM
same,TGI,[32],> 100 µM
same,TGI,[33],> 100 µM
same,TGI,[34],> 100 µM
same,TGI,[35],> 100 µM
same,TGI,[36],> 100 µM
same,TGI,[37],> 100 µM
same,TGI,[38],> 100 µM
same,GI50,[39],> 100 µM
same,TGI,[39],> 100 µM
same,TGI,[40],> 100 µM
same,TGI,[41],> 100 µM
same,TGI,[42],> 100 µM
same,TGI,[43],> 100 µM
same,TGI,[44],> 100 µM
same,TGI,[45],> 100 µM
same,TGI,[46],> 100 µM
same,TGI,[47],> 100 µM
same,TGI,[48],> 100 µM
same,TGI,[49],> 100 µM
same,TGI,[50],> 100 µM
same,TGI,[51],> 100 µM
same,TGI,[52],> 100 µM
same,TGI,[53],> 100 µM
same,TGI,[54],> 100 µM
same,TGI,[59],> 100 µM
same,TGI,[55],> 100 µM
same,TGI,[56],> 100 µM
same,TGI,[57],> 100 µM
same,TGI,[58],> 100 µM
